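These data come from cells grown in 96-well plates and exposed to compound for 48 hours at five concentrations. GI50 = concentration required for 50% inhibition of growth. The concentration for full growth arrest is given as TGI.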
Key:
Experiment in all cases: DTP human tumour cell line panel, 48 h
SNB-19 CNS = tested on: SNB-19 CNS
CAKI-1 renal = tested on: CAKI-1 renal
HT29 colon = tested on: HT29 colon
UACC-257 melanoma = tested on: UACC-257 melanoma
SR leukemia = tested on: SR leukemia
CCRF-CEM leukemia = tested on: CCRF-CEM leukemia
SNB-75 CNS = tested on: SNB-75 CNS
UACC-62 melanoma = tested on: UACC-62 melanoma
HOP-62 NSCLC = tested on: HOP-62 NSCLC
HCC-2998 colon = tested on: HCC-2998 colon
NCI-H23 lung = tested on: NCI-H23 lung
SK-MEL-2 melanoma = tested on: SK-MEL-2 melanoma
HCT-15 colon = tested on: HCT-15 colon
U251 CNS = tested on: U251 CNS
ACHN renal = tested on: ACHN renal
MDA-MB-435 = tested on: MDA-MB-435
BT-549 breast = tested on: BT-549 breast
MALME-3M melanoma = tested on: MALME-3M melanoma
HCT-116 colon = tested on: HCT-116 colon
TK-10 renal = tested on: TK-10 renal
M14 melanoma = tested on: M14 melanoma
HOP-92 NSCLC = tested on: HOP-92 NSCLC
SF-295 CNS = tested on: SF-295 CNS
IGROV1 ovarian = tested on: IGROV1 ovarian
OVCAR-3 ovarian = tested on: OVCAR-3 ovarian
A498 renal = tested on: A498 renal
RXF 393 renal = tested on: RXF 393 renal
UO-31 renal = tested on: UO-31 renal
HL-60(TB) leukemia = tested on: HL-60(TB) leukemia
T-47D breast = tested on: T-47D breast
OVCAR-8 ovarian = tested on: OVCAR-8 ovarian
HS 578T breast = tested on: HS 578T breast
LOX IMVI melanoma = tested on: LOX IMVI melanoma
786-0 renal = tested on: 786-0 renal
NCI/ADR-RES ovarian = tested on: NCI/ADR-RES ovarian
DU-145 prostate = tested on: DU-145 prostate
SN12C renal = tested on: SN12C renal
MOLT-4 leukemia = tested on: MOLT-4 leukemia
PC-3 prostate = tested on: PC-3 prostate
MCF7 breast = tested on: MCF7 breast
OVCAR-4 ovarian = tested on: OVCAR-4 ovarian
NCI-H460 lung = tested on: NCI-H460 lung
KM12 colon = tested on: KM12 colon
COLO 205 colon = tested on: COLO 205 colon
SF-268 CNS = tested on: SF-268 CNS
SK-MEL-28 melanoma = tested on: SK-MEL-28 melanoma
RPMI-8226 leukemia = tested on: RPMI-8226 leukemia
OVCAR-5 ovarian = tested on: OVCAR-5 ovarian
A549 NSCLC = tested on: A549 NSCLC
SF-539 CNS = tested on: SF-539 CNS
SW-620 colon = tested on: SW-620 colon
NCI-H226 lung = tested on: NCI-H226 lung
MDA-MB-231 breast = tested on: MDA-MB-231 breast
SK-OV-3 ovarian = tested on: SK-OV-3 ovarian
SK-MEL-5 melanoma = tested on: SK-MEL-5 melanoma
EKVX NSCLC = tested on: EKVX NSCLC
NCI-H522 lung = tested on: NCI-H522 lung

O=C1Nc2cc(Cl)ccc2Oc2cc(Oc3ccccc3)ccc21
GI50 (SNB-19 CNS): 10.5 µM
TGI (SNB-19 CNS): 49.2 µM
GI50 (CAKI-1 renal): 3.81 µM
TGI (CAKI-1 renal): 38.8 µM
GI50 (HT29 colon): 3.22 µM
TGI (HT29 colon): 18.3 µM
GI50 (UACC-257 melanoma): 16 µM
TGI (UACC-257 melanoma): > 100 µM
GI50 (SR leukemia): 2.89 µM
TGI (SR leukemia): 29.5 µM
GI50 (CCRF-CEM leukemia): 3.24 µM
TGI (CCRF-CEM leukemia): > 100 µM
GI50 (SNB-75 CNS): 1.49 µM
TGI (SNB-75 CNS): 20.1 µM
GI50 (UACC-62 melanoma): 4.15 µM
TGI (UACC-62 melanoma): 91.3 µM
GI50 (HOP-62 NSCLC): 5.68 µM
TGI (HOP-62 NSCLC): 20 µM
GI50 (HCC-2998 colon): 8.8 µM
TGI (HCC-2998 colon): > 100 µM
GI50 (NCI-H23 lung): 3.78 µM
TGI (NCI-H23 lung): 29.9 µM
GI50 (SK-MEL-2 melanoma): 4.99 µM
TGI (SK-MEL-2 melanoma): 35.7 µM
GI50 (HCT-15 colon): 3.84 µM
TGI (HCT-15 colon): > 100 µM
GI50 (U251 CNS): 5.26 µM
TGI (U251 CNS): 23.8 µM
GI50 (ACHN renal): 12.2 µM
TGI (ACHN renal): 76.6 µM
GI50 (MDA-MB-435): 0.761 µM
TGI (MDA-MB-435): 5.85 µM
GI50 (BT-549 breast): 8.97 µM
TGI (BT-549 breast): 51.1 µM
GI50 (MALME-3M melanoma): 10.9 µM
TGI (MALME-3M melanoma): 47.4 µM
GI50 (HCT-116 colon): 4.23 µM
TGI (HCT-116 colon): 32 µM
GI50 (TK-10 renal): 12 µM
TGI (TK-10 renal): 47.3 µM
GI50 (M14 melanoma): 4.76 µM
TGI (M14 melanoma): 50.2 µM
GI50 (HOP-92 NSCLC): 1.32 µM
TGI (HOP-92 NSCLC): 9.41 µM
GI50 (SF-295 CNS): 3.64 µM
TGI (SF-295 CNS): 18.5 µM
GI50 (IGROV1 ovarian): 5.42 µM
TGI (IGROV1 ovarian): 29.9 µM
GI50 (OVCAR-3 ovarian): 2.53 µM
TGI (OVCAR-3 ovarian): 7.32 µM
GI50 (A498 renal): 1.69 µM
TGI (A498 renal): 9.72 µM
GI50 (RXF 393 renal): 2.09 µM
TGI (RXF 393 renal): 9.87 µM
GI50 (UO-31 renal): 6.52 µM
TGI (UO-31 renal): > 100 µM
GI50 (HL-60(TB) leukemia): 3.6 µM
TGI (HL-60(TB) leukemia): > 100 µM
GI50 (T-47D breast): 4.79 µM
TGI (T-47D breast): 36.8 µM
GI50 (OVCAR-8 ovarian): 8.81 µM
TGI (OVCAR-8 ovarian): 78.4 µM
GI50 (HS 578T breast): 3.31 µM
TGI (HS 578T breast): 27.5 µM
GI50 (LOX IMVI melanoma): 5.51 µM
TGI (LOX IMVI melanoma): > 100 µM
GI50 (786-0 renal): 8.96 µM
TGI (786-0 renal): 42.2 µM
GI50 (NCI/ADR-RES ovarian): 2.53 µM
TGI (NCI/ADR-RES ovarian): 9.77 µM
GI50 (DU-145 prostate): 6.52 µM
TGI (DU-145 prostate): 26.6 µM
GI50 (SN12C renal): 5.52 µM
TGI (SN12C renal): 71.1 µM
GI50 (MOLT-4 leukemia): 4.78 µM
TGI (MOLT-4 leukemia): > 100 µM
GI50 (PC-3 prostate): 4.85 µM
TGI (PC-3 prostate): 48.4 µM
GI50 (MCF7 breast): 3.39 µM
TGI (MCF7 breast): 18.3 µM
GI50 (OVCAR-4 ovarian): 6.52 µM
TGI (OVCAR-4 ovarian): 23.8 µM
GI50 (NCI-H460 lung): 2.91 µM
TGI (NCI-H460 lung): 11.7 µM
GI50 (KM12 colon): 2.09 µM
TGI (KM12 colon): 14 µM
GI50 (COLO 205 colon): 5.3 µM
TGI (COLO 205 colon): 19.9 µM
GI50 (SF-268 CNS): 6.33 µM
TGI (SF-268 CNS): 31.6 µM
GI50 (SK-MEL-28 melanoma): 5.94 µM
TGI (SK-MEL-28 melanoma): 32.8 µM
GI50 (RPMI-8226 leukemia): 5.35 µM
TGI (RPMI-8226 leukemia): > 100 µM
GI50 (OVCAR-5 ovarian): 8.69 µM
TGI (OVCAR-5 ovarian): > 100 µM
GI50 (A549 NSCLC): 4.66 µM
TGI (A549 NSCLC): 33.8 µM
GI50 (SF-539 CNS): 8.53 µM
TGI (SF-539 CNS): 40 µM
GI50 (SW-620 colon): 2.73 µM
TGI (SW-620 colon): 16.9 µM
GI50 (NCI-H226 lung): 6.41 µM
TGI (NCI-H226 lung): 55.8 µM
GI50 (MDA-MB-231 breast): 5.5 µM
TGI (MDA-MB-231 breast): 51.4 µM
GI50 (SK-OV-3 ovarian): 4.66 µM
TGI (SK-OV-3 ovarian): 17.4 µM
GI50 (SK-MEL-5 melanoma): 3.13 µM
TGI (SK-MEL-5 melanoma): 15.1 µM
GI50 (EKVX NSCLC): 4.36 µM
TGI (EKVX NSCLC): 37.2 µM
GI50 (NCI-H522 lung): 3.51 µM
TGI (NCI-H522 lung): > 100 µM

From PubChem BioAssay (NCI)
